Assay results as given in patent US20050143406A1, “Amino-substituted hypocrellins for use as sonosensitizers” (priority 2002, published 2005).
Values joined by “and” are separate entries in the source; they are usually repeats but may differ in a detail not shown here. Equal values may be shown once.

Columns and labels:
[1] = tested on: EMT6 murine mastocytoma in vitro; assay: Photosensitizing potential: LD50 for a fixed dose of light; type: cell-based
[2] = tested on: EMT6 murine mastocytoma in vitro; assay: Sonosensitizing potential: LD50 for a fixed dose of ultrasound; type: cell-based
[3] = tested on: Human acute promyelocytic leukemia HL-60 cells; assay: Sonodynamic therapy survival assay, screening of sonosensitizers in vitro; type: cell-based; conditions: for Mean - DMSO Bg: mean survival relative to DMSO only (100.0); for Survival, % Mean / Survival, %: insonated HL-60 cells; for Survival, %: single determinations
Text: This screening assay makes use of human promyelocytic leukemia cells growing in suspension culture. The transducer of an UltraMax ultrasound generator for physiotherapy was adapted for in vitro studies by fitting a tissue culture-compatible Teflon cuff such that cell suspensions could be conveniently insonated. The following diagrams represent the equipment employed.
Human acute promyelocytic leukemia HL-60 cells (ATCC No CCL-240) were maintained in RPMI 1640 cell culture medium supplemented with 7 g/L of L-glutamine (Gibco, Grand Island N.Y.), 10% fetal bovine serum (Cansera), and 1% penicillin-streptomycin-neomycin (Gibco), buffered with NaHCO3 to pH 7.4. They were incubated at 37° C. in a humidified atmosphere of 95% air, 5% CO2, and maintained at cell densities between 2.0×10^5 to 1.0×10^6 cells/mL. For insonations in the presence of Hp (a porphyrin positive control) or hypocrellin test compounds, cells were brought to approximately 1.0×10^6 cells/mL, incubated with the putative sensitizer at 37° C. for 2 hours in T-flasks, equilibrated for 30 minutes at room temperature, resuspended and insonated. All procedures took place in low-light conditions to avoid spurious photosensitization. Cells were gently resuspended for 10 seconds before insonation. […] Stock sensitizer was prepared by slowly adding RPMI-1640 medium to the appropriate volume at final sensitizer concentrations between 0.3 mM and 1 mM.
Aliquots of cells were withdrawn prior to insonation to serve as the original value for cell survival. Cells were suspended in Isoton diluent and counted in a Coulter electronic particle counter. Insonation proceeded at a power density of 2 W, at times varying between 3- and 10 seconds to effect cytotoxicity by sonosensitization. Control cultures were subjected to the appropriate dose of ultrasound, in the presence of DMSO, and the absence of the test sonosensitizer. Following ultrasound treatment, aliquots of the cell suspension were withdrawn for counting as above, and the survival fraction, S, was calculated as the fraction: S=(Cell number following insonation/cell number prior to insonation)×100. Results:
HL-60 cells were treated with perylenequinone sensitizers and insonated as described above. The surviving fractions were plotted against sensitizer concentration. […] Cell survival decreased steeply over the next two decades of sensitizer concentration.

[4] = tested on: syngeneic murine mastocytoma, EMT6; assay: Efficiency of DMHB in vivo: SDT of EMT6 tumors in Balb/c mice; conditions: Balb/c mice with EMT6 flank tumors, DMHB i.p. 50 μM total body concentration, ultrasound 1 MHz 0.2 W/cm^2 10 min after 48 h; FIG. 2
Description: We explored the use of DMHB in Balb/c mice engrafted in the flank with the syngeneic murine mastocytoma, EMT6. The mice were inoculated subcutaneously with 1.0×10^5 EMT6 tumor cells in sterile injectable saline. Within 7 days, detectable tumors are evident. Mice were randomized into a control group and a SDT treatment group, which differed only in that the sonosensitizer was not present in the drug solvent (see below). Fresh DMHB was dissolved in mineral oil, and injected intraperitoneally into each mouse to achieve a total body concentration of 50 μM. Following a an interval of 48 h for biodistribution of the sensitizer, the mice were lightly anesthetized with Metafane, and placed on a 2% agarose gel, with the tumor lying in a depression of the gel which was juxtaposed to the transducer of an UltraMax physiotherapy ultrasound generator. Ultrasound was applied at a frequency of 1 MHz, at a power density of 0.2 W/cm^2, for a 10-minute period. The maximum energy applied to the tumor volume was approximately 500 J. Tumor growth was monitored daily by caliper measurements in three mutually orthogonal planes. Tumor volume was calculated from the expression, V=π/6×d1×d2×d3 where V=volume (mm^3), and d1,2, and 3 are the three mutually orthogonal diameters. The endpoint for the assay was the proportion of tumors reaching 4 times treatment volume, which was plotted as a function of time. […]

[5] = HL-60 cells, fixed dose and energy of ultrasound

With Ethylenediamne-Hypocrellin B [HBED-R2] the “Photosensitizing Potential (Molar Concentration which exerts LD50)” value (shortened to “Photosensitizing Potential”) [1] was 4.0 µM and the “Sonosensitizing Potential (Molar Concentration which exerts LD50)” value (“Sonosensitizing Potential” for short) [2] was “None”.
With 2-morpholino-ethylaminated HB [HBAM-R1] the “Photosensitizing Potential” value [1] was 4.0 µM and the “Sonosensitizing Potential” value [2] was “None”.
Molecule `CC1=C(CCC(=O)O)c2cc3[nH]c(cc4nc(cc5[nH]c(cc1n2)c(C)c5C(C)O)C(C)=C4C(C)O)c(C)c3CCC(=O)O` (stereo not shown) [Hp, hematoporphyrin, reference compound] has an LD50 [3, 5] of 1.0 mM.
In the case of `CCCCNc1c2c3c4c(c(OC)c(=O)c5c(O)cc(OC)c(c6c(OC)cc(O)c(c1=O)c63)c54)CC(C)=C2C(C)=O` [DMHBb, 2-butylamino-2-demethoxy-Hypocrellin B], the “Photosensitizing Potential” value [1] is reported as 0.1 µM and the “Sonosensitizing Potential” value [2] is reported as 0.1 mM.
With demethoxy hypocrellin B [DMHB] the tumor growth [4] was “tumor growth is inhibited”, the “maximum sonotoxic effect compared with Hp control” value ([3]; HL-60 cells) was “comparable to that of the Hp control” and the LD50 [3, 5] was “approximately 100 μM”. The “difference of LD50 versus hematoporphyrin (Hp) control” value [3, 5] was 10 fold, the sonotoxicity ([3]; HL-60 cells, up to 100 μM) was “negligible sonotoxicity” and the “Mean - DMSO Bg” value ([3]; 1 μM DMHB) was 83.0%. For the same molecule, the “Mean - DMSO Bg” value ([3]; 10 μM DMHB) was 71.1%, the “Mean - DMSO Bg” value ([3]; 100 μM DMHB) was 63.2% and the “Survival, % Mean” value ([3]; DMSO + 1 μM DMHB) was 41.1%. For the same molecule, the “Survival, % Mean” value ([3]; DMSO + 10 μM DMHB) was 35.2%, the “Survival, % Mean” value ([3]; DMSO + 100 μM DMHB) was 31.3% and the “Survival, %” value ([3]; DMSO + 1 μM DMHB) was 41.8% and 48.2% and 33.5%. For the same molecule, the “Survival, %” value ([3]; DMSO + 10 μM DMHB) was 37.3% and 43.3% and 24.9% and the “Survival, %” value ([3]; DMSO + 100 μM DMHB) was 30.7% and 39.4% and 23.7%.
`COc1c2c3c4c(c(OC)c(=O)c5c(O)cc(OC)c(c6c(OC)cc(O)c(c1=O)c63)c54)[C@@H](C(C)=O)[C@@](C)(O)C2` [HA, Hypocrellin A, reference compound] was tested, and the “Photosensitizing Potential” value [1] was 4.0 µM and the “Sonosensitizing Potential” value [2] was “None”.
With “2-(N,N-dimethyl-amino) propylamine-Hypocrellin B [HBDD-R1]” the “Sonosensitizing Potential” value [2] was 1.0 mM.
For Methylamine-Hypocrellin B [HBMA-IV], the “Photosensitizing Potential” value [1] was 1.0 µM and the “Sonosensitizing Potential” value [2] was “None”.
In the case of Demethylated-HB [DMHBa], the “Photosensitizing Potential” value [1] is reported as 3.0 µM and the “Sonosensitizing Potential” value [2] is reported as 1.0 mM.
